One experiment deals with SUV39H2 (Homo sapiens (Human), UniProt Q9H5I1). As to the kind of experiment: biochemical. It counts as biochemical. To be noted: 3H-SAM 100 nM, H3 Histone Peptide 350 nM, room temperature 3 hours. The essentials: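 Scintillation proximity format: reactions were halted with streptavidin SPA beads (50 μg/well final) after 3 h at room temperature with enzyme dosed by lot-specific activity.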

The subject of the next experiment is A549. In words: Cell-based assay, anti-proliferative activity (Cell Counting Kit-8, 72 hours). The settings on record: Homo sapiens, read-out: A549 IC50. The procedure, abridged:
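Growth read-out after inhibitor treatment of plated cells; potency expressed as IC50.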

Setting [1] is: A549 cells, 72 hours exposure, Cell Counting Kit-8.

Structures can show the parent of a compound that is named as a salt. Where two headings read alike, the source gives them in different places.

SUV39H2, sequence (Q9H5I1 whole entry): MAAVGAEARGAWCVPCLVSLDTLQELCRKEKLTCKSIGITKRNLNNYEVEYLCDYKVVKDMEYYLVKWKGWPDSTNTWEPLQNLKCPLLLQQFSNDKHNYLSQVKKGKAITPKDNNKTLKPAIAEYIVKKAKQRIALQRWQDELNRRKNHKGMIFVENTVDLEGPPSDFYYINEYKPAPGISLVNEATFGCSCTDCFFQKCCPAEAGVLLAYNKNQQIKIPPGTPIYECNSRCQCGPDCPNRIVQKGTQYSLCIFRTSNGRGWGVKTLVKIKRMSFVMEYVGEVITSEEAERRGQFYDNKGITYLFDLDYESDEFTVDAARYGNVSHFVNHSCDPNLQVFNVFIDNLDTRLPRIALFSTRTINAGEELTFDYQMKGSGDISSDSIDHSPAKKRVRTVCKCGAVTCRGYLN

Regarding `COc1cc(OC)c(-c2cn3ccc(N4CCCN(Cc5ccncc5)CC4)cc3n2)cc1Cl` [Example 388, 2-(5-chloro-2,4-dimethoxyphenyl)-7-(4-(pyridin-4-ylmethyl)-1,4-diazepan-1-yl)imidazo[1,2-a]pyridine dihydrochloride], the IC50 worked out at 5.05 nM on SUV39H2 and 560 nM in the experiment on A549 (A549, 72 h).

Take `COc1cc(OC)c(-c2cn3ccc(N4CCN(c5cc(N(C)C)nc(N)n5)CC4)cc3n2)cc1Cl` [Example 389, 6-(4-(2-(5-chloro-2,4-dimethoxyphenyl)imidazo[1,2-a]pyridin-7-yl)piperazin-1-yl)-N^4,N^4-dimethylpyrimidine-2,4-diamine dihydrochloride]: the half-inhibitory concentration (IC50) against SUV39H2 was 39.3 nM; in the experiment with A549 (A549, 72 h), 750 nM.

As to `COc1cc(OC)c(-c2cn3cnc(N4CCN(S(=O)(=O)C5CC5)CC4)cc3n2)cc1Cl` [Example 390, 2-(5-chloro-2,4-dimethoxyphenyl)-7-(4-(cyclopropylsulfonyl)piperazin-1-yl)imidazo[1,2-c]pyrimidine], the results for the IC50 against SUV39H2 and in the experiment with A549 (setting [1]) were 99.6 nM and 390 nM, respectively.

`COc1cc(OC)c(-c2cn3ccc(N[C@H]4C[C@H]5CC[C@@H](C4)N5C(=O)OC(C)C)cc3n2)cc1Cl` [Example 391, (1R,3r,5S)-isopropyl 3-((2-(5-chloro-2,4-dimethoxyphenyl)imidazo[1,2-a]pyridin-7-yl)amino)-8-azabicyclo[3.2.1]octane-8-carboxylate]: the IC50 on SUV39H2 came out at 79.3 nM; in the experiment with A549 (setting [1]) it was 990 nM.

As to `COc1cc(OC)c(-c2cn3ccc(N[C@H]4CC[C@@H](NC(=O)c5ccccc5O)CC4)cc3n2)cc1Cl` [Example 392, N-(cis-4-((2-(5-chloro-2,4-dimethoxyphenyl)imidazo[1,2-a]pyridin-7-yl)amino)cyclohexyl)-2-hydroxybenzamide trifluoroacetate], the half-maximal inhibitory concentration (IC50) at SUV39H2 is 52.7 nM; with A549 (setting [1]), 680 nM.

Take `COc1cc(OC)c(-c2cn3ccc(N4CC[C@H](NCc5ccc(N(C)C(=O)OC(C)(C)C)cc5)C4)cc3n2)cc1Cl` [Example 394, (S)-tert-butyl (4-(((1-(2-(5-chloro-2,4-dimethoxyphenyl)imidazo[1,2-a]pyridin-7-yl)pyrrolidin-3-yl)amino)methyl)phenyl)(methyl)carbamate]: the half-inhibitory concentration (IC50) was 10.3 nM against SUV39H2 and 800 nM in the experiment on A549 (setting [1]).

In the case of `COc1cc(OC)c(-c2cn3ccc(N4CCN(c5ccnc(NCCCO)n5)CC4)cc3n2)cc1Cl` [Example 395, 3-((4-(4-(2-(5-chloro-2,4-dimethoxyphenyl)imidazo[1,2-a]pyridine-7-yl)piperazin-1-yl)pyrimidin-2-yl)amino)propan-1-ol], the figures for the IC50 at SUV39H2 and with A549 (setting [1]) were 14 nM and 770 nM, respectively.

Take `CNC1CCN(c2ncc(N3CCN(c4ccn5cc(-c6cc(Cl)c(OC)cc6OC)nc5c4)CC3)cn2)CC1` [Example 396, 1-(5-(4-(2-(5-chloro-2,4-dimethoxyphenyl)imidazo[1,2-a]pyridin-7-yl)piperazin-1-yl)pyrimidin-2-yl)-N-methylpiperidin-4-amine dihydrochloride]: the IC50 at SUV39H2 is 14.6 nM; with A549 (A549, 72 h) it was 780 nM.

For `COc1cc(OC)c(-c2cn3ccc(N[C@H]4CC[C@H](NCc5cccc(C#N)c5)CC4)cc3n2)cc1Cl` [Example 397, 3-((((1r,4r)-4-((2-(5-chloro-2,4-dimethoxyphenyl)imidazo[1,2-a]pyridin-7-yl)amino)cyclohexyl)amino)methyl)benzonitrile], the 50% inhibitory concentration (IC50) on SUV39H2 was determined as 64.6 nM; with A549 (setting [1]), 700 nM.

Turning to `COc1cc(OC)c(-c2cn3ccc(N[C@H]4CC[C@H](Nc5nccc(N6CCN(C)CC6)n5)CC4)cc3n2)cc1Cl` [Example 398, (1r,4r)-N^1-(2-(5-chloro-2,4-dimethoxyphenyl)imidazo[1,2-a]pyridin-7-yl)-N^4-(4-(4-methylpiperazin-1-yl)pyrimidin-2-yl)cyclohexane-1,4-diamine], the concentration for half-maximal inhibition (IC50) stood at 23.3 nM on SUV39H2 and 440 nM in the experiment with A549 (setting [1]).

Turning to `COc1cc(OC)c(-c2cn3ccc(N4CCN(c5ccnc(NCC(C)O)n5)CC4)cc3n2)cc1Cl` (centres unmarked) [Example 399, 1-((4-(4-(2-(5-chloro-2,4-dimethoxyphenyl)imidazo[1,2-a]pyridine-7-yl)piperazin-1-yl)pyrimidin-2-yl)amino)propan-2-ol], the half-maximal inhibitory concentration (IC50) stood at 11.7 nM at SUV39H2 and 660 nM with A549 (setting [1]).

Take `COc1cc(OC)c(-c2cn3ccc(N4CC[C@H](NCC5CCN(C(=O)OC(C)(C)C)CC5)C4)cc3n2)cc1Cl` [Example 400, (S)-tert-butyl 4-(((1-(2-(5-chloro-2,4-dimethoxyphenyl)imidazo[1,2-a]pyridine-7-yl)pyrrolidin-3-yl)amino)methyl)piperidine-1-carboxylate]: the results for the 50% inhibitory concentration (IC50) at SUV39H2 and in the experiment with A549 (setting [1]) were 7.15 nM and 930 nM, respectively.

Regarding `CNC1CCN(c2ncc(N3CCN(c4ccn5cc(-c6cc(Cl)c(OC)cc6OC)nc5c4)CC3)cn2)C1` (centres unmarked) [Example 401, 1-(5-(4-(2-(5-chloro-2,4-dimethoxyphenyl)imidazo[1,2-a]pyridin-7-yl)piperazin-1-yl)pyrimidin-2-yl)-N-methylpyrrolidin-3-amine dihydrochloride], the half-inhibitory concentration (IC50) against SUV39H2 was determined as 6.81 nM; in the experiment on A549 (A549, 72 h), 500 nM.

For `COc1cc(OC)c(-c2cn3ccc(N[C@H]4CC[C@@H](NCc5cccc(F)c5)CC4)cc3n2)cc1Cl` [Example 402, cis-N^1-(2-(5-chloro-2,4-dimethoxyphenyl)imidazo[1,2-a]pyridin-7-yl)-N^4-(3-fluorobenzyl)cyclohexane-1,4-diamine bis(2,2,2-trifluoroacetate)], the half-inhibitory concentration (IC50) was 18.7 nM on SUV39H2 and 740 nM with A549 (setting [1]).

On to `COc1cc(OC)c(-c2cn3ccc(N[C@H]4CC[C@@H](NCc5ccc(C#N)cc5)CC4)cc3n2)cc1Cl` [Example 403, 4-((((1s,4s)-4-((2-(5-chloro-2,4-dimethoxyphenyl)imidazo[1,2-a]pyridine-7-yl)amino)cyclohexyl)amino)methyl) benzonitrile], for which the results for the IC50 against SUV39H2 and in the experiment on A549 (setting [1]) were 15.1 nM and 750 nM, respectively.

In the case of `COc1cc(OC)c(-c2cn3ccc(N4CC[C@H](NC(=O)c5ccccn5)C4)cc3n2)cc1Cl` [Example 404, (S)—N-(1-(2-(5-chloro-2,4-dimethoxyphenyl)imidazo[1,2-a]pyridin-7-yl)pyrrolidin-3-yl)picolinamide], the IC50 against SUV39H2 stood at 4.03 nM; with A549 (setting [1]), 1500 nM.

For the compound `COc1cc(OC)c(-c2cn3ccc(N4CCN(c5nccc(N6CCC(N)C6)n5)CC4)cc3n2)cc1Cl` (centres unmarked) [Example 405, 1-(2-(4-(2-(5-chloro-2,4-dimethoxyphenyl)imidazo[1,2-a]pyridin-7-yl)piperazin-1-yl)pyrimidin-4-yl)pyrrolidin-3-amine], the IC50 stood at 15.3 nM against SUV39H2 and 690 nM with A549 (setting [1]).

Regarding `COc1cc(OC)c(-c2cn3ccc(N[C@H]4CC[C@H](Nc5nccc(N6CCOCC6)n5)CC4)cc3n2)cc1Cl` [Example 406, (1r,4r)-N^1-(2-(5-chloro-2,4-dimethoxyphenyl)imidazo[1,2-a]pyridin-7-yl)-N^4-(4-morpholinopyrimidin-2-yl)cyclohexane-1,4-diamine], the IC50 against SUV39H2 came to 37 nM; in the experiment on A549 (setting [1]), 740 nM.

Regarding `COc1cc(OC)c(-c2cn3ccc(N4CC[C@H](NC(C)c5ccncc5)C4)cc3n2)cc1Cl` (stereo partly drawn) [Example 407, (3S)-1-(2-(5-chloro-2,4-dimethoxyphenyl)imidazo[1,2-a]pyridin-7-yl)-N-(1-(pyridin-4-yl)ethyl)pyrrolidin-3-amine dihydrochloride], the IC50 on SUV39H2 was 7.7 nM; with A549 (A549, 72 h), 950 nM.

Regarding `COc1cc(OC(F)F)c(-c2cn3ccc(N4CC[C@H](NC(=O)OC(C)(C)C)C4)cc3n2)cc1Cl` [Example 408, (S)-tert-butyl (1-(2-(5-chloro-2-(difluoromethoxy)-4-methoxyphenyl)imidazo[1,2-a]pyridine-7-yl)pyrrolidin-3-yl)carbamate], the IC50 on SUV39H2 came to 12.7 nM; in the experiment on A549 (setting [1]), 560 nM.

Turning to `COc1cc(OC)c(-c2cn3ccc(N4CCN(/N=C\c5ccncc5)CC4)cc3n2)cc1Cl` [Example 410, (Z)-4-(2-(5-chloro-2,4-dimethoxyphenyl)imidazo[1,2-a]pyridin-7-yl)-N-(pyridin-4-ylmethylene)piperazin-1-amine], the values for the IC50 against SUV39H2 and in the experiment on A549 (setting [1]) were 8.29 nM and 780 nM, respectively.

Consider `COc1cc(OC)c(-c2cn3ccc(N[C@H]4CC[C@@H](NCc5ccc([N+](=O)[O-])cc5)CC4)cc3n2)cc1Cl` [Example 411, cis-N^1-(2-(5-chloro-2,4-dimethoxyphenyl)imidazo[1,2-a]pyridin-7-yl)-N^4-(4-nitrobenzyl)cyclohexane-1,4-diamine], for which the concentration for half-maximal inhibition (IC50) amounted to 26.3 nM at SUV39H2 and 370 nM in the experiment on A549 (setting [1]).

Turning to `COc1cc(OC)c(-c2cn3ccc(N4CC[C@H](NCc5ccnc(F)c5)C4)cc3n2)cc1Cl` [Example 412, (S)-1-(2-(5-chloro-2,4-dimethoxyphenyl)imidazo[1,2-a]pyridin-7-yl)-N-((2-fluoropyridin-4-yl)methyl)pyrrolidin-3-amine dihydrochloride], the concentration for half-maximal inhibition (IC50) was determined as 6.83 nM against SUV39H2 and 850 nM in the experiment with A549 (A549, 72 h).

Turning to `COc1cc(OC)c(-c2cn3ccc(N4CC[C@H](NCc5ccnc(Cl)c5)C4)cc3n2)cc1Cl` [Example 413, (S)-1-(2-(5-chloro-2,4-dimethoxyphenyl)imidazo[1,2-a]pyridin-7-yl)-N-((2-chloropyridin-4-yl)methyl)pyrrolidin-3-amine dihydrochloride], the concentration for half-maximal inhibition (IC50) at SUV39H2 came out at 6.35 nM; in the experiment on A549 (A549, 72 h), 770 nM.

On to `COc1cc(OC)c(-c2cn3ccc(N[C@H]4CC[C@H](NCc5ccccc5F)CC4)cc3n2)cc1Cl` [Example 414, (1r,4r)-N^1-(2-(5-chloro-2,4-dimethoxyphenyl)imidazo[1,2-a]pyridin-7-yl)-N^4-(2-fluorobenzyl)cyclohexane-1,4-diamine], for which the IC50 at SUV39H2 came out at 84.8 nM; in the experiment with A549 (setting [1]) it was 820 nM.

The record behind these values is patent publication US10508109B2 (priority 2015, dated 2019).
